Residues, ends and D or L forms follow the SMILES beside them.
How the values were obtained:
[1] = test system: T-47D mammary carcinoma cells; experiment: Apoptosis assay (Apo-ONE Homogeneous Caspase-3/7) in T-47D cells; assay type: cell-based, human; settings: for apoptotic activity compared to the control in T-47D cells: 1 µg/ml peptide; for apoptotic activity compared to the control in T-47D cells / caspase-3/7 activity (apoptotic induction) in T-47D cells: 24 h stimulation, fluorescence (RFU); for caspase-3/7 activity (apoptotic induction) in T-47D cells: 10 µg/ml peptide; for apoptosis in cancerous breast tissue cells (T-47D): all concentrations tested (1µg, 5µg, and 10µg), 24 h, compared with MCF10A, t-test
[2] = test system: T-47D mammary carcinoma cells; experiment: Gene expression analysis, Human Breast Cancer RT2 Profiler PCR array; assay type: cell-based; settings: 10 µg/mL peptide, 24 h, ΔΔCt vs unstimulated control, fold change above 2
Description: Three 75 cm^2 cell culture flasks containing the T-47D and three 75 cm^2 cell culture flasks containing the MCF10A cells were individually stimulated with peptides 1, 12, or 13 at a concentration of 10 µg/mL. An unstimulated cell culture flask was left as a control. Cells were incubated for 24 hours according to standard protocol at 37°C and 5% CO2, in a humidified atmosphere.
After 24 hours, the cells were detached, and RNA was isolated according to the Macherey-Nagel kit. RNA quality was assessed using a NanoDrop 1000 spectrophotometer and gel electrophoresis. To create cDNA the iScript cDNA Synthesis Kit (BioRad) was used and followed according to manufacturer’s instructions. For gene expression analysis, the Human Breast Cancer RT2 Profiler PCR array was used (Qiagen) according to manufacturer’s instructions. On this plate, forward and reverse primers were already included in each well for the respective genes. The qPCR cycling conditions were as follows: 8.5 min at 95°C, […] at 55°C, […] at 72°C and 4°C as holding temperature. Housekeeping gene stability was validated, and results were geometrically averaged. Beta (β)-actin was used for endogenous controls. Expression of carcinogenic markers was quantified relative by the ΔΔCt method and results were normalized to housekeeping genes (Livak and Schmittgen, 2001). The Ct values of the untreated samples were set to zero. The Ct values of the MCF10A samples were subtracted from the Ct values of the T-47D samples. Relative gene expression was calculated from the zero line using Microsoft Excel Version 2016 software (Microsoft Cooperation, Redmond, WA, USA). The resulting higher or lower expressions of the analyzed genes were presented. Gene expression was measured using the BioRad i-Cycler.

[3] = test system: methicillin-resistant Staphylococcus aureus; settings: no reference given, cited from earlier work
Description: We evaluated the antimicrobial activity of the synthesized peptides by assessing their MIC against Meticillin-Sensitive Staphylococcus aureus and Methicillin-resistant Staphylococcus aureus (MSSA and MRSA). […] The MIC of vancomycin of 2 µg/mL was used as ... || The skin mucus-derived AMPs were initially characterized, and 22 candidate peptides were identified and ranked based on their likelihood of having antibacterial activities (Table 1, Supl. 2).

[4] = test system: MRSA, ATCC# 43300; assay type: cell-based, Staphylococcus aureus
Description: (§1) MIC assays (MRSA, ATCC# 43300/ MSSA, ATCC# 6538) were performed according to CLSI guidelines. […] Thereafter, samples were treated with peptide concentrations ranging from 10, 5, 2.5, 2, 1.75, 1.5 1.25, 1, 0,85, 0.625 and 0.313 µg/mL. Human antimicrobial peptide LL-37 was utilized as a positive control at a concentration of 256 μg/mL, as it is one of the best-known examples of AMP-based drug development. The assay was performed in triplicates. Efficacy was assessed according to the viable bacterial load determined by dilution plating and counting of Colony Forming Units (CFU). The lowest concentration that inhibited bacterial growth after 24 h of incubation is the MIC. Growth curve were performed using a plate reader (Synergy 2, Biotek).

[5] = test system: MSSA, ATCC# 6538; experiment: MIC assay according to CLSI guidelines against MSSA; assay type: cell-based, Staphylococcus aureus; settings: 24 h, 37°C; peptides listed in order of lowest to highest MIC; Fig 2A
Description: as §1

Compound	apoptotic activity compared to the control in T-47D cells [1]	caspase-3/7 activity (apoptotic induction) in T-47D cells [1]	apoptosis in cancerous breast tissue cells (T-47D) [1]	genes with significant decrease in expression [2]	genes with significant increase in expression [2]	MIC of vancomycin used as threshold for identifying inhibitory effects ([3]; threshold for MRSA and MSSA in Fig 2A)	MIC values reported against similar MRSA strains ([3]; typical reported range)	MIC against methicillin-resistant Staphylococcus aureus (MRSA) ([4]; ATCC# 43300, 24 h)	inhibitory effect against MRSA (MIC relative to vancomycin threshold of 2 µg/mL) ([4]; 24 h, 37°C, peptides listed in order of lowest to highest MIC, Fig 2A)	inhibitory effect against MSSA (MIC relative to vancomycin threshold of 2 µg/mL) [5]
ILLLcVGEAGDTVQFAEYIQK [Peptide 12, synthetic analog of axolotl skin mucus AMP, rank 12]	increased apoptotic activity compared to the control	highest levels of caspase-3/7 activity	significantly increased apoptosis	CCND2, EGF, GLI1, KRT5, MMP2, and SERPINE1	BRCA1, JUN, NR3C1, RB1, SFN, and XBP1					
CN[C@H](CC(C)C)C(=O)N[C@H]1C(=O)N[C@@H](CC(N)=O)C(=O)N[C@H]2C(=O)N[C@H]3C(=O)N[C@H](C(=O)N[C@H](C(=O)O)c4cc(O)cc(O)c4-c4cc3ccc4O)[C@H](O)c3ccc(c(Cl)c3)Oc3cc2cc(c3O[C@@H]2O[C@H](CO)[C@@H](O)[C@H](O)[C@H]2O[C@H]2C[C@](C)(N)[C@H](O)[C@H](C)O2)Oc2ccc(cc2Cl)[C@H]1O [vancomycin]						2 µg/mL	0.5 to 2 µg/mL			
CC[C@H](C)[C@H](NC(=O)CNC(=O)CNC(=O)[C@H](CO)NC(=O)[C@H](C)NC(=O)CNC(=O)[C@H](CC(C)C)NC(=O)[C@@H](NC(=O)[C@H](C)NC(=O)[C@@H](N)C(C)C)C(C)C)C(=O)NCC(=O)N[C@@H](CCC(N)=O)C(=O)N1CCC[C@H]1C(=O)N[C@@H](CC(C)C)C(=O)N[C@@H](CO)C(=O)N[C@@H](CC(C)C)C(=O)N[C@@H](CC(C)C)C(=O)N[C@@H](CC(C)C)C(=O)N[C@@H](CCCCN)C(=O)O [Peptide 1] (H-VAVLGASGGIGQPLSLLLK-OH)								2 µg/mL		
FGANALLGVSLAVcKAGAAEK [Peptide 13, synthetic analog of axolotl skin mucus AMP, rank 13]	less distinct	highest levels of caspase-3/7 activity	significantly increased apoptosis	IL6 and MMP2	BRCA1, BRCA2, NR3C1, SERPINE1, and XBP1				inhibitory effect	Inhibitory effects

Source: article PMC11882074, “Identification of antimicrobial peptides from the Ambystoma mexicanum displaying antibacterial and antitumor activity” (PLOS One, 2025)
